In ChEMBL document CHEMBL3885861, “Open TG-GATES”:

Organism: Rattus norvegicus
Experiment: Open TG-GATES - Regimen: Single
Type: toxicity, organism-based, Sprague-Dawley
Set-up: regimen Single, gender Male, age 6 weeks
Conditions: in vivo, po, 3 mg/kg, route gavage, dose level Low; for APTT / Bas / Eos / Fbg / Hb / Ht / Lym / MCH / MCHC / MCV / Mono / Neu / PT / Plat / RBC / Ret / WBC: tissue Blood; for KIDNEY_L / KIDNEY_R / KIDNEY_TOTAL: tissue Kidney; for LIVER: tissue Liver; for A/G / ALP / ALT / AST / BUN / CRE / Ca / Cl / DBIL / GLC / IP / K / LDH / Na / PL / RALB / TBIL / TC / TG / TP / gamma-GTP: tissue Plasma

## Cn1cnc([N+](=O)[O-])c1Sc1ncnc2nc[nH]c12 [AZATHIOPRINE]
3 h
  TERMINAL_BW: 191 g
  APTT: 23.4 s
  Bas: 0%
  Eos: 1%
  Fbg: 295.8 mg/dL
  Hb: 13.4 g/dL
  Ht: 40.1%
  Lym: 77.8%
  MCH: 21.6 pg
  MCHC: 33.4%
  MCV: 64.6 fL
  Mono: 1.8%
  Neu: 18.2%
  PT: 15.8 s
  Plat: 115.7 x10_4/uL
  RBC: 621.4 x10_4/ul
  Ret: 9.1%
  WBC: 67.9 x10_2/uL
  KIDNEY_L: 0.8 g
  KIDNEY_R: 0.9 g
  KIDNEY_TOTAL: 1.7 g
  LIVER: 8.6 g
  A/G: 1.2
  ALP: 1535.2 IU/L
  ALT: 41.6 IU/L
  AST: 73.4 IU/L
  BUN: 13.2 mg/dL
  CRE: 0.1 mg/dL
  Ca: 10.6 mg/dL
  Cl: 106.8 meq/L
  DBIL: 0.002 mg/dL
  GLC: 190.2 mg/dL
  IP: 8.1 mg/dL
  K: 4.2 meq/L
  LDH: 273.6 IU/L
  Na: 142.8 meq/L
  PL: 139.2 mg/dL
  RALB: 3 g/dL
  TBIL: 0.004 mg/dL
  TC: 75.4 mg/dL
  TG: 68 mg/dL
  TP: 5.5 g/dL
  gamma-GTP: 1 IU/L
6 h
  TERMINAL_BW: 185.7 g
  APTT: 21.8 s
  Bas: 0%
  Eos: 0.8%
  Fbg: 324.4 mg/dL
  Hb: 13.1 g/dL
  Ht: 39%
  Lym: 69.2%
  MCH: 22.3 pg
  MCHC: 33.6%
  MCV: 66.3 fL
  Mono: 2.2%
  Neu: 26.2%
  PT: 15.7 s
  Plat: 130.1 x10_4/uL
  RBC: 589.2 x10_4/ul
  Ret: 9.5%
  WBC: 95.2 x10_2/uL
  KIDNEY_L: 0.8 g
  KIDNEY_R: 0.8 g
  KIDNEY_TOTAL: 1.7 g
  LIVER: 8.1 g
  A/G: 1.2
  ALP: 1674.4 IU/L
  ALT: 43.2 IU/L
  AST: 75 IU/L
  BUN: 9.4 mg/dL
  CRE: 0.1 mg/dL
  Ca: 10.5 mg/dL
  Cl: 106.8 meq/L
  DBIL: 0.002 mg/dL
  GLC: 182.4 mg/dL
  IP: 8.8 mg/dL
  K: 4.2 meq/L
  LDH: 288.6 IU/L
  Na: 142.2 meq/L
  PL: 135.8 mg/dL
  RALB: 3 g/dL
  TBIL: 0.008 mg/dL
  TC: 78.8 mg/dL
  TG: 48.4 mg/dL
  TP: 5.5 g/dL
  gamma-GTP: 1 IU/L
9 h
  TERMINAL_BW: 186.8 g
  APTT: 22.5 s
  Bas: 0%
  Eos: 1%
  Fbg: 311.8 mg/dL
  Hb: 13 g/dL
  Ht: 38.7%
  Lym: 74%
  MCH: 21.2 pg
  MCHC: 33.5%
  MCV: 63.4 fL
  Mono: 2.4%
  Neu: 20.6%
  PT: 15.3 s
  Plat: 125.3 x10_4/uL
  RBC: 611 x10_4/ul
  Ret: 9.3%
  WBC: 83.5 x10_2/uL
  KIDNEY_L: 0.9 g
  KIDNEY_R: 0.9 g
  KIDNEY_TOTAL: 1.7 g
  LIVER: 7.5 g
  A/G: 1.2
  ALP: 1456.2 IU/L
  ALT: 38.4 IU/L
  AST: 70.4 IU/L
  BUN: 10.6 mg/dL
  CRE: 0.1 mg/dL
  Ca: 10.5 mg/dL
  Cl: 107 meq/L
  DBIL: 0 mg/dL
  GLC: 183.4 mg/dL
  IP: 9.3 mg/dL
  K: 4.2 meq/L
  LDH: 234.2 IU/L
  Na: 141.6 meq/L
  PL: 140.8 mg/dL
  RALB: 2.9 g/dL
  TBIL: 0.016 mg/dL
  TC: 83.4 mg/dL
  TG: 51.8 mg/dL
  TP: 5.4 g/dL
  gamma-GTP: 1 IU/L
24 h
  TERMINAL_BW: 202.9 g
  APTT: 21.3 s
  Bas: 0%
  Eos: 1%
  Fbg: 322.4 mg/dL
  Hb: 13.5 g/dL
  Ht: 39.2%
  Lym: 77.8%
  MCH: 21.9 pg
  MCHC: 34.5%
  MCV: 63.4 fL
  Mono: 2.2%
  Neu: 18.4%
  PT: 16 s
  Plat: 135.6 x10_4/uL
  RBC: 618.4 x10_4/ul
  Ret: 8.2%
  WBC: 63.3 x10_2/uL
  KIDNEY_L: 0.9 g
  KIDNEY_R: 0.9 g
  KIDNEY_TOTAL: 1.8 g
  LIVER: 9.7 g
  A/G: 1.3
  ALP: 1726.6 IU/L
  ALT: 48.8 IU/L
  AST: 75.4 IU/L
  BUN: 14.6 mg/dL
  CRE: 0.1 mg/dL
  Ca: 11.1 mg/dL
  Cl: 106.8 meq/L
  DBIL: 0 mg/dL
  GLC: 189 mg/dL
  IP: 7.2 mg/dL
  K: 4.1 meq/L
  LDH: 318.6 IU/L
  Na: 143.4 meq/L
  PL: 148.2 mg/dL
  RALB: 3.2 g/dL
  TBIL: 0.004 mg/dL
  TC: 76.4 mg/dL
  TG: 120 mg/dL
  TP: 5.7 g/dL
  gamma-GTP: 1.2 IU/L
